From PubChem BioAssay (NCI)
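Tested at 5 concentrations; 48 h exposure; 96-well plates; endpoints linearly interpolated, else capped at highest concentration. TGI is the concentration that stops growth completely.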

Experiments:
Experiment in all cases: growth of human tumour cells (NCI), 48 h
IGROV1 ovarian = test system: IGROV1 ovarian
CAKI-1 renal = test system: CAKI-1 renal
SR leukemia = test system: SR leukemia
UACC-62 melanoma = test system: UACC-62 melanoma
HOP-62 NSCLC = test system: HOP-62 NSCLC
OVCAR-8 ovarian = test system: OVCAR-8 ovarian
A549 NSCLC = test system: A549 NSCLC
HT29 colon = test system: HT29 colon
RPMI-8226 leukemia = test system: RPMI-8226 leukemia
SW-620 colon = test system: SW-620 colon
UACC-257 melanoma = test system: UACC-257 melanoma
M14 melanoma = test system: M14 melanoma
SF-295 CNS = test system: SF-295 CNS
ACHN renal = test system: ACHN renal
EKVX NSCLC = test system: EKVX NSCLC
T-47D breast = test system: T-47D breast
SNB-19 CNS = test system: SNB-19 CNS
HS 578T breast = test system: HS 578T breast
OVCAR-4 ovarian = test system: OVCAR-4 ovarian
MCF7 breast = test system: MCF7 breast
SF-268 CNS = test system: SF-268 CNS
HOP-92 NSCLC = test system: HOP-92 NSCLC
BT-549 breast = test system: BT-549 breast
OVCAR-5 ovarian = test system: OVCAR-5 ovarian
HCT-15 colon = test system: HCT-15 colon
SK-MEL-2 melanoma = test system: SK-MEL-2 melanoma
HCT-116 colon = test system: HCT-116 colon
NCI-H226 lung = test system: NCI-H226 lung
SK-MEL-5 melanoma = test system: SK-MEL-5 melanoma
CCRF-CEM leukemia = test system: CCRF-CEM leukemia
MOLT-4 leukemia = test system: MOLT-4 leukemia
OVCAR-3 ovarian = test system: OVCAR-3 ovarian
NCI-H460 lung = test system: NCI-H460 lung
TK-10 renal = test system: TK-10 renal
COLO 205 colon = test system: COLO 205 colon
MDA-MB-231 breast = test system: MDA-MB-231 breast
MDA-N = test system: MDA-N
HCC-2998 colon = test system: HCC-2998 colon
U251 CNS = test system: U251 CNS
A498 renal = test system: A498 renal
SK-OV-3 ovarian = test system: SK-OV-3 ovarian
MDA-MB-435 = test system: MDA-MB-435
SNB-75 CNS = test system: SNB-75 CNS
SK-MEL-28 melanoma = test system: SK-MEL-28 melanoma
786-0 renal = test system: 786-0 renal
NCI/ADR-RES ovarian = test system: NCI/ADR-RES ovarian
PC-3 prostate = test system: PC-3 prostate
SN12C renal = test system: SN12C renal
HL-60(TB) leukemia = test system: HL-60(TB) leukemia
KM12 colon = test system: KM12 colon
NCI-H522 lung = test system: NCI-H522 lung
K-562 leukemia = test system: K-562 leukemia
RXF 393 renal = test system: RXF 393 renal
DU-145 prostate = test system: DU-145 prostate
UO-31 renal = test system: UO-31 renal
LOX IMVI melanoma = test system: LOX IMVI melanoma
NCI-H23 lung = test system: NCI-H23 lung
SF-539 CNS = test system: SF-539 CNS
MALME-3M melanoma = test system: MALME-3M melanoma

`NC1C/C(=N\O)c2c(I)sc(I)c21` (centres undefined) was tested, and the TGI (IGROV1 ovarian) was 30.8 µM, the TGI (CAKI-1 renal) was 28.6 µM and the TGI (SR leukemia) was > 100 µM. For the same compound, the TGI (UACC-62 melanoma) was 37.1 µM, the TGI (HOP-62 NSCLC) was 34.4 µM and the TGI (OVCAR-8 ovarian) was 29.1 µM. The TGI (A549 NSCLC) was 46.4 µM, the TGI (HT29 colon) was 48.8 µM and the TGI (RPMI-8226 leukemia) was > 42 µM. The TGI (SW-620 colon) was 29.4 µM, the TGI (UACC-257 melanoma) was 31.8 µM and the TGI (M14 melanoma) was 30.9 µM. The TGI (SF-295 CNS) was 31.8 µM, the TGI (ACHN renal) was 33.5 µM and the TGI (EKVX NSCLC) was 40.4 µM. For the same compound, the TGI (T-47D breast) was 52.3 µM, the TGI (SNB-19 CNS) was 39.3 µM and the TGI (HS 578T breast) was 48.9 µM. For the same compound, the TGI (OVCAR-4 ovarian) was > 64.9 µM, the TGI (MCF7 breast) was 36 µM and the TGI (SF-268 CNS) was 35.3 µM. It also gave a TGI (HOP-92 NSCLC) of 34.5 µM, a TGI (BT-549 breast) of 29.9 µM and a TGI (OVCAR-5 ovarian) of 31.4 µM. For the same compound, the TGI (HCT-15 colon) was 30.6 µM, the TGI (SK-MEL-2 melanoma) was 35.2 µM and the TGI (HCT-116 colon) was 15.2 µM. For the same compound, the TGI (NCI-H226 lung) was 34.1 µM, the TGI (SK-MEL-5 melanoma) was 28.4 µM and the TGI (CCRF-CEM leukemia) was > 100 µM. The TGI (MOLT-4 leukemia) was > 100 µM, the TGI (OVCAR-3 ovarian) was 30.2 µM and the TGI (NCI-H460 lung) was 52 µM. For the same compound, the TGI (TK-10 renal) was 31.3 µM, the TGI (COLO 205 colon) was 40.6 µM and the TGI (MDA-MB-231 breast) was 39.3 µM. For the same compound, the TGI (MDA-N) was > 54 µM, the TGI (HCC-2998 colon) was 38.5 µM and the TGI (U251 CNS) was 37.4 µM. The TGI (A498 renal) was > 58 µM, the TGI (SK-OV-3 ovarian) was 30.2 µM and the TGI (MDA-MB-435) was 27.2 µM. For the same compound, the TGI (SNB-75 CNS) was 33.4 µM, the TGI (SK-MEL-28 melanoma) was 32.5 µM and the TGI (786-0 renal) was > 50.9 µM. The TGI (NCI/ADR-RES ovarian) was 43.1 µM, the TGI (PC-3 prostate) was 31.6 µM and the TGI (SN12C renal) was > 56.6 µM. For the same compound, the TGI (HL-60(TB) leukemia) was > 100 µM, the TGI (KM12 colon) was 27.7 µM and the TGI (NCI-H522 lung) was 3.7 µM. For the same compound, the TGI (K-562 leukemia) was > 74.1 µM, the TGI (RXF 393 renal) was 35.8 µM and the TGI (DU-145 prostate) was 31.4 µM. The TGI (UO-31 renal) was 30.1 µM, the TGI (LOX IMVI melanoma) was 15.6 µM and the TGI (NCI-H23 lung) was 30.2 µM. The TGI (SF-539 CNS) was 20.3 µM and the TGI (MALME-3M melanoma) was 30.1 µM.
